Where “and” joins values, the source holds several entries; their conditions need not be identical. Identical values can stand only once. Counter-ions that a name gives are not always drawn. Like-named read-outs stand apart in the source and are kept apart here. Marks after values point to notes of the source that are not given here.

Data set [1] is classed as in vitro ADME.
Data set [2] is classed as physicochemical. As to the method: Additionally the potential activation at blood pH of 7.4 was investigated over a similar period. The concentrations of the prodrug & drug were assayed by HPLC.
Data set [3] can be described thus: in vivo. The conditions noted are these: monkey, read-out: Monkey Oral Bioavailability (%).
Experimental: (§1) Blood samples were taken at various times after administration and submitted to analysis for the parent drug and prodrug using a validated LC-MS-MS assay. Pharmacokinetic parameters derived from the plasma analytical data were determined using Win Nonlin.
Data set [4] is described as follows: in vivo. The conditions noted are these: dog, read-out: Dog Oral Bioavailability (%).
Experimental: as §1
Data set [5] is described as follows: Pharmacokinetics of R,R tapentadol or R,R tapentadol PABA carbamate, monkeys (Example 40). The following applies: R,R tapentadol in plasma after oral R,R tapentadol, 3 mg free base equivalents/kg. It is filed as in vivo, cynomolgus monkeys.
Experimental: (§2) Blood samples were taken at various times after administration, and submitted to analysis for the parent drug and prodrug using a validated LC-MS-MS assay. Pharmacokinetic parameters derived from the plasma analytical data were determined using Win Nonlin.
Data set [6] in a line: Pharmacokinetics of R,R tapentadol or R,R tapentadol PABA carbamate, dogs (Example 41). It is filed as in vivo, Beagle dogs. The following applies: for AUC / Cmax / T>50%Cmax / Tmax / t½: RR-tapentadol in plasma after oral RR-tapentadol, 1 mg free base equivalents/kg, female beagle dogs.
Experimental: as §2
Data set [7] can be described thus: Pharmacokinetics of butorphanol or butorphanol PABA carbamate, dogs (Example 44). It is filed as in vivo, beagle dogs. The conditions noted are these: butorphanol in plasma after oral butorphanol, 0.5 mg butorphanol free base/kg, dog; for half-life: read-out: t½ (converted). As to the method: Test substances, butorphanol or butorphanol_PABA carbamate were orally administered to two male beagle dogs at 0.5 mg butorphanol free base equivalents/kg in a parallel group study design.

The nature of data set [8]: Pharmacokinetics of butorphanol or butorphanol PABA carbamate, monkeys (Example 43). It is filed as in vivo, cynomolgus monkeys.
Experimental: as §2
For data set [9] the following is noted: Balikova et al. (2001); cited from earlier work.
Data set [10] in a line: in vivo. The conditions noted are these: male, rat, plasma, po, 10 mg naloxone free base equivalents/kg, naloxone in plasma after oral naloxone, 10 mg free base equivalents/kg, male rats; for half-life: t½.
Experimental: Blood samples were taken at various times after administration and submitted to analysis for the parent drug and pro-drug using a validated LC-MS-MS assay. Pharmacokinetic parameters derived from the plasma analytical data were determined using Win Nonlin.
Data set [11] is described as follows: Pharmacokinetics of racemic tapentadol or tapentadol PABA carbamate, monkeys (Example 39).
[12] abbreviates: simulated intestinal fluid pH 6.8, 37 C.
The mark [13] stands for this setting: naloxone in plasma after oral naloxone, 10 mg free base equivalents/kg, male rats, single animal.

As to `CCC1(c2cccc(OC(=O)NC(C(=O)O)C(C)C)c2)CCCCN(C)C1` [Meptazinol (R)-valine carbamate], the “Biological/chemical stability - SIF - pH 6.8, 37 C. % prodrug remaining at 2 h” value in data set [1] (setting [12]) is reported as 74%. In addition, the “Chemical Stability - pH 7.4, 37° C. % prodrug remaining at 2 h” value in [2] (pH 7.4, 37° C, 2 h) is 96%.
With `CCC1(c2cccc(OC(=O)NC(C(=O)O)C(C)C)c2)CCCCN(C)C1` [Meptazinol (S) valine carbamate], the “Biological/chemical stability - SIF - pH 6.8, 37 C. % prodrug remaining at 2 h” value in data set [1] (setting [12]) is reported as 99%. Besides, the “Chemical Stability, % prodrug remaining at 2 h, pH 10.0” value in data set [2] (pH 10.0, 37° C, 2 h) is 66% pH 10.0.
Consider `CCC1(c2cccc(O)c2)CCCCN(C)C1` (stereo not shown) [Meptazinol HCl (oral), Meptazinol HCl], for which the results for the bioavailability in the data set “in vivo [3]” and in “in vivo [4]” were 1.8 ± 0.2% and 6 ± 2.1%, respectively.
`CCC(C)C(NC(=O)Oc1cccc(C2(CC)CCCCN(C)C2)c1)C(=O)O` (stereo not shown) [Meptazinol isoleucine carbamate]: in data set [1] (setting [12]), the “Biological/chemical stability - SIF - pH 6.8, 37 C. % prodrug remaining at 2 h” value is 99%. Further, the “Chemical Stability, % prodrug remaining at 2 h, pH 10.0” value in data set [2] (pH 10.0, 37° C, 2 h) is recorded as 73% pH 10.0.
With `CCC1(c2cccc(OC(=O)NC(CCSC)C(=O)O)c2)CCCCN(C)C1` (stereo not shown) [Meptazinol methionine carbamate], the “Biological/chemical stability - SIF - pH 6.8, 37 C. % prodrug remaining at 2 h” value in data set [1] (simulated gi fluid, pH 6.8) is on record as 100%. The “Chemical Stability, % prodrug remaining at 2 h, pH 10.0” value in [2] (buffer, 2 h, pH 10) is given as 60% pH 10.0.
Take `CCC1(c2cccc(OC(=O)N[C@H](C(=O)O)C(C)C)c2)CCCCN(C)C1` (stereo partly shown) [Meptazinol-valine carbamate]: in data set [2] (pH 7.4), the “Chemical stability at pH 7.4” value is listed as about 100%.
For the molecule `CC[C@@H](c1cccc(O)c1)[C@@H](C)CN(C)C` [R,R tapentadol], in [5] (Mean), the AUC is 7.6 ng·h/mL, the Cmax was 2.2 ng/mL, the “T>50%Cmax” value was determined as 2.8 h and the Tmax amounted to 1.1 h. Also, the t½ in data set [5] (Mean) stood at 1.6 h. Also, in data set [5] (single animal), the AUC was 10 ng·h/mL and 8.6 ng·h/mL and 7.7 ng·h/mL and 4.0 ng·h/mL; the Cmax is 2.9 ng/mL and 2.6 ng/mL and 2.1 ng/mL and 1.1 ng/mL; the “T>50%Cmax” value is 2.8 h (2×) and 2.7 h and 2.9 h; the Tmax was 0.5 h and 1.0 h (2×) and 2.0 h. For the same molecule, the t½ in data set [5] (single animal) is 1.5 h (2×) and 1.7 h and 1.6 h. Further, in data set [6] (Mean), the AUC came out at 4.16 ng·h/mL, the peak concentration (Cmax) amounted to 3.21 ng/mL, the “T>50%Cmax” value is recorded as 0.7 h and the Tmax was 0.44 h. Moreover, in [6] (Mean), the t½ was determined as 0.6 h. In [6] (single animal), the AUC was 1.74 ng·h/mL and 8.35 ng·h/mL and 2.38 ng·h/mL; the Cmax is 1.25 ng/mL and 8.48 ng/mL and 0.39 ng/mL and 2.71 ng/mL; the “T>50%Cmax” value is 1.0 h and 0.6 h (2×); the Tmax was 0.50 h (3×) and 0.25 h. Besides, the t½ in data set [6] (single animal) was 0.7 h and 0.6 h and 0.5 h. For the same molecule, the “T50% Cmax of R,R tapentadol” value in data set [6] (dogs, oral 1 mg R,R tapentadol free base equivalents/kg) is reported as 0.7 h.
With `Oc1ccc2c(c1)[C@@]13CCCC[C@@]1(O)[C@@H](C2)N(CC1CCC1)CC3` [butorphanol], the “T>50%Cmax” value is 2.0 h in data set [7] (Average); 1.6 h and 2.4 h in data set [7] (single animal). In addition, the exposure (AUC) in data set [7] (single animal) is 1.80 ng·h/mL; in [7] (male, beagle, plasma, po, 0.5 mg/kg, Average, read-out: AUC), 2.05 ng·h/mL; in [7] (male, beagle, plasma, po, 0.5 mg/kg, single animal, read-out: AUC) it was 2.3 ng·h/mL; in data set [8] (male, cynomolgus monkey, 1 mg butorphanol free base equivalents/kg, butorphanol in plasma after oral butorphanol, 1.0 mg butorphanol free base/kg, Average, estimate of maximal systemic exposure), 0.62 ng·h/mL. Also, the Cmax is 0.56 ng/mL in [7] (single animal); 0.73 ng/mL in data set [7] (male, beagle, plasma, po, 0.5 mg/kg, Average, read-out: Cmax); 0.9 ng/mL in data set [7] (male, beagle, plasma, po, 0.5 mg/kg, single animal, read-out: Cmax); <0.1* ng/mL in data set [8] (butorphanol in plasma after oral butorphanol, 1.0 mg butorphanol free base/kg, monkey, single animal, below the LLOQ of 0.1 ng/mL); 0.1 ng/mL in [8] (male, cynomolgus monkey, plasma, po, 1 mg butorphanol free base equivalents/kg, butorphanol in plasma after oral butorphanol, 1.0 mg butorphanol free base/kg, Average, plasma concentrations below the LLOQ of 0.1 ng/mL, read-out: Cmax); under 0.1 ng/mL in data set [8] (male, cynomolgus monkey, plasma, po, 1 mg butorphanol free base equivalents/kg, butorphanol in plasma after oral butorphanol, 1.0 mg butorphanol free base/kg, single animal, below the LLOQ of 0.1 ng/mL, read-out: Cmax). Besides, the Tmax in data set [7] (single animal) amounted to 1.00 h; in data set [7] (male, beagle, plasma, po, 0.5 mg/kg, Average, read-out: Tmax), 0.75 h; in data set [7] (male, beagle, plasma, po, 0.5 mg/kg, single animal, read-out: Tmax), 0.5 h; in [8] (male, cynomolgus monkey, 1 mg butorphanol free base equivalents/kg, butorphanol in plasma after oral butorphanol, 1.0 mg butorphanol free base/kg, Average, plasma concentrations below the LLOQ of 0.1 ng/mL), 0.5 h. This molecule also showed a t½ in data set [7] (single animal) of 1.7 h. Also, the half-life in data set [7] (male, beagle, plasma, po, 0.5 mg/kg, Average) was 1.6 h; in [7] (male, beagle, plasma, po, 0.5 mg/kg, single animal), 1.6 h; in [8] (male, cynomolgus monkey, plasma, 1 mg butorphanol free base equivalents/kg, butorphanol, oral butorphanol 1.0 mg free base/kg, Average, value after giving prodrug and used for estimating maximal systemic exposure, read-out: t½ (converted)), 6.1 h.
On to `COc1ccc2c3c1O[C@H]1[C@@H](O)CC[C@H]4[C@@H](C2)N(C)CC[C@@]341` [dihydrocodeine], for which the “oral dose converted to dihydromorphine” value in data set [9] is on record as “less than 2%”.
As to `C=CCN1CC[C@]23c4c5ccc(O)c4O[C@H]2C(=O)CC[C@@]3(O)[C@H]1C5` [naloxone], in the data set “in vivo [10]” (Mean), the AUC was 22 ng·h/mL, the Cmax was found to be 6.8 ng/mL, the Tmax came to 0.35 h and the half-life was 3.9 h. In addition, in “in vivo [10]” (single animal), the AUC is 22 ng·h/mL, the Cmax worked out at 7.1 ng/mL, the time to peak (Tmax) worked out at 0.25 h and the half-life is 3.9 h. Further, where the note is “naloxone in plasma after oral naloxone, 10 mg free base equivalents/kg, male rats, Mean”, the “T>50%Cmax” value was 2.1 h. For the same molecule, under setting [13], the maximum concentration (Cmax) was 6.3 ng/mL and 7.6 ng/mL and 8.1 ng/mL and 4.9 ng/mL; the “T>50%Cmax” value was 1.2 h and 1.5 h and 1.8 h and 1.3 h and 4.5 h; the Tmax turned out to be 0.50 h; the t½ came to 3.8 h. The “variability around bioavailability of naloxone” value (rats, oral 10 mg/kg) is on record as “over 10%”.
`CC[C@@H](c1cccc(O)c1)[C@@H](C)CN(C)C` [tapentadol] had a half-life in data set [11] (cynomolgus monkey, plasma, po, 3 mg/kg) of 1.2 h. For the same molecule, the AUC in [11] (male, cynomolgus monkey, plasma, po, 1 mg free base equivalents/kg) is 5.4 ng·h/mL; in [11] (male, cynomolgus monkey, plasma, po, 1 mg/kg tapentadol free base equivalents/kg), under 5.4 ng·h/mL. The Cmax in [11] (male, cynomolgus monkey, plasma, po, 1 mg free base equivalents/kg, Cmax * (estimated), racemic tapentadol (all four isomers), oral tapentadol scaled up from 1 to 3 mg free base equivalents/kg, monkeys, n = 5, LLOQ taken as Cmax) was 2.4 ng/mL. Also, the “plasma concentrations of tapentadol, each isomer (LLOQ)” value in data set [11] (oral tapentadol 1 mg/kg, monkeys) is under 0.4 ng/mL. Moreover, in data set [11] (racemic tapentadol (all four isomers), oral tapentadol scaled up from 1 to 3 mg free base equivalents/kg, monkeys, n = 5, LLOQ taken as Cmax), the “Cmax * (estimated)” value is on record as under 2.4 ng/mL.

As usually defined, the bioavailability is the share of a dose that reaches the circulation, judged against a reference dose that is usually intravenous. As usually defined, the AUC is the area under the concentration-time curve, a measure of exposure. The Cmax is the highest concentration seen after dosing. In general, Tmax refers to the time from dosing to the highest level. The t½ is how long it takes for the measured level to halve.

These data come from patent publication US20110190267A1, “PRODRUGS OF OPIOIDS AND USES THEREOF” (priority 2010, published 2011).
